# Tests used:
# Assay in all cases: Test D pre-/postemergence plant response
# Format in all cases: in vivo
# [1] = tested on: bluegrass (annual bluegrass, Poa annua)
# From the text: (§1) Seeds of plant species selected from bermudagrass (Cynodon dactylon), Surinam grass (Brachiaria decumbens), large crabgrass (Digitaria sanguinalis), green foxtail (Setaria viridis), goosegrass (Eleusine indica), johnsongrass (Sorghum halepense), kochia (Kochia scoparia), morningglory (pitted morningglory, Ipomoea lacunosa), nutsedge (purple nutsedge, Cyperus rotundus), ragweed (common ragweed, Ambrosia elatior), black mustard (Brassica nigra), guineagrass (Panicum maximum), dallisgrass (Paspalum dilatatum), barnyardgrass (Echinochloa crus-galli), sandbur (southern sandbur, Cenchrus echinatus), sowthistle (common sowthistle, Sonchus oleraceous), prickly sida (Sida spinosa), Italian ryegrass (Lolium multiflorum), purslane (common purslane, Portulaca oleracea), signalgrass (broadleaf signalgrass, Brachiaria platyphylla), groundsel (common groundsel, Senecio vulgaris), chickweed (common chickweed, Stellaria media), dayflower (Virginia (VA) dayflower, Commelina virginica), bluegrass (annual bluegrass, Poa annua), naked crabgrass (Digitaria nuda), itchgrass (Rottboellia cochinchinensis), quackgrass (Elytrigia repens), field bindweed (Convolvulus arvensis), spanishneedles (Bidens bipinnata), mallow (common mallow, Malva sylvestris) and Russian thistle (Salsola kali), were planted into a blend of loam soil and sand and treated preemergence with test chemicals formulated in a non-phytotoxic solvent mixture which included a surfactant. At the same time, plants from these weed species were treated with postemergence applications of the test chemicals formulated in the same manner. Plants ranged in height from 2 to 18 cm (1- to 4-leaf stage) for postemergence treatments.
# (§2) Treated plants and controls were maintained in a greenhouse for 14 to 21 days, after which time all species were visually evaluated and compared to controls. Plant response ratings, summarized in Table D, are based on a scale of 0 to 100 where 0 is no effect and 100 is complete control. A dash (-) response means no test result.
# [2] = tested on: dayflower (Virginia (VA) dayflower, Commelina virginica)
# From the text: as §1, §2
# [3] = tested on: sandbur (southern sandbur, Cenchrus echinatus)
# From the text: as §1, §2
# [4] = tested on: quackgrass (Elytrigia repens)
# From the text: as §1, §2
# [5] = tested on: field bindweed (Convolvulus arvensis)
# From the text: as §1, §2
# [6] = tested on: mallow (common mallow, Malva sylvestris)
# From the text: as §1, §2
# [7] = tested on: sowthistle (common sowthistle, Sonchus oleraceous)
# From the text: as §1, §2
# [8] = tested on: itchgrass (Rottboellia cochinchinensis)
# From the text: as §1, §2
# [9] = tested on: prickly sida (Sida spinosa)
# From the text: as §1, §2
# [10] = Postemergence, 31 g ai/ha, scale 0 to 100 (0 no effect, 100 complete control)
# [11] = Postemergence, 62 g ai/ha, scale 0 to 100 (0 no effect, 100 complete control)
# [12] = Postemergence, 125 g ai/ha, scale 0 to 100 (0 no effect, 100 complete control)
# [13] = Postemergence, 16 g ai/ha, scale 0 to 100
# [14] = Preemergence, 16 g ai/ha, scale 0 to 100, 0 no effect, 100 complete control
# [15] = Preemergence, 31 g ai/ha, scale 0 to 100 (0 no effect, 100 complete control)
# [16] = Preemergence, 62 g ai/ha, scale 0 to 100
# [17] = Preemergence, 125 g ai/ha, scale 0 to 100
# [18] = Postemergence, 31 g ai/ha, scale 0 to 100
# [19] = Postemergence, 250 g ai/ha, scale 0 to 100 (0 no effect, 100 complete control)
smiles,measurement,setting,value
COCCn1c(-c2ccccc2)ncc(C(=O)C2=C(O)CCCC2=O)c1=O [Compound 85],"Plant response rating, Bluegrass",[1]; [10],0
same,"Plant response rating, Bluegrass",[1]; [11],5
same,"Plant response rating, Bluegrass",[1]; [12],5
same,"Plant response rating, Bluegrass",[1]; [13],0
same,"Plant response rating, Bluegrass",[1]; [14],0
same,"Plant response rating, Bluegrass",[1]; [15],0
same,"Plant response rating, Bluegrass",[1]; [16],0
same,"Plant response rating, Bluegrass",[1]; [17],15
same,"Plant response rating, Dayflower, VA",[2]; [18],30
same,"Plant response rating, Dayflower, VA",[2]; [11],60
same,"Plant response rating, Dayflower, VA",[2]; [12],80
same,"Plant response rating, Dayflower, VA",[2]; [13],20
same,"Plant response rating, Dayflower, VA",[2]; [14],5
same,"Plant response rating, Dayflower, VA",[2]; [15],10
same,"Plant response rating, Dayflower, VA",[2]; [16],90
same,"Plant response rating, Dayflower, VA",[2]; [17],95
same,"Plant response rating, Sandbur",[3]; [18],50
same,"Plant response rating, Sandbur",[3]; [11],65
same,"Plant response rating, Sandbur",[3]; [12],95
same,"Plant response rating, Sandbur",[3]; [13],10
same,"Plant response rating, Sandbur",[3]; [14],5
same,"Plant response rating, Sandbur",[3]; [15],5
same,"Plant response rating, Sandbur",[3]; [17],98
same,"Plant response rating, Quackgrass",[4]; [18],0
same,"Plant response rating, Quackgrass",[4]; [11],15
same,"Plant response rating, Quackgrass",[4]; [12],20
same,"Plant response rating, Quackgrass",[4]; [13],0
same,"Plant response rating, Quackgrass",[4]; [14],0
same,"Plant response rating, Quackgrass",[4]; [15],0
same,"Plant response rating, Quackgrass",[4]; [17],20
same,"Plant response rating, Field Bindweed",[5]; [18],75
same,"Plant response rating, Field Bindweed",[5]; [11],75
same,"Plant response rating, Field Bindweed",[5]; [12],75
same,"Plant response rating, Field Bindweed",[5]; [13],65
same,"Plant response rating, Field Bindweed",[5]; [14],50
same,"Plant response rating, Field Bindweed",[5]; [15],70
same,"Plant response rating, Field Bindweed",[5]; [16],70
same,"Plant response rating, Field Bindweed",[5]; [17],98
same,"Plant response rating, Mallow",[6]; [18],65
same,"Plant response rating, Mallow",[6]; [11],70
same,"Plant response rating, Mallow",[6]; [12],75
same,"Plant response rating, Mallow",[6]; [13],60
same,"Plant response rating, Mallow",[6]; [14],80
same,"Plant response rating, Mallow",[6]; [16],95
same,"Plant response rating, Mallow",[6]; [17],98
same,"Plant response rating, Sowthistle",[7]; [18],100
same,"Plant response rating, Sowthistle",[7]; [11],100
same,"Plant response rating, Sowthistle",[7]; [12],100
same,"Plant response rating, Sowthistle",[7]; [13],100
same,"Plant response rating, Sowthistle",[7]; [14],100
same,"Plant response rating, Sowthistle",[7]; [15],100
same,"Plant response rating, Sowthistle",[7]; [17],100
same,"Plant response rating, Itchgrass",[8]; [18],35
same,"Plant response rating, Itchgrass",[8]; [11],65
same,"Plant response rating, Itchgrass",[8]; [12],70
same,"Plant response rating, Itchgrass",[8]; [13],30
same,"Plant response rating, Itchgrass",[8]; [14],10
same,"Plant response rating, Itchgrass",[8]; [15],15
same,"Plant response rating, Itchgrass",[8]; [16],35
same,"Plant response rating, Itchgrass",[8]; [17],50
same,"Plant response rating, Prickly Sida",[9]; [18],95
same,"Plant response rating, Prickly Sida",[9]; [11],95
same,"Plant response rating, Prickly Sida",[9]; [12],98
same,"Plant response rating, Prickly Sida",[9]; [14],90
same,"Plant response rating, Prickly Sida",[9]; [15],100
same,"Plant response rating, Prickly Sida",[9]; [16],100
same,"Plant response rating, Prickly Sida",[9]; [17],100
COCCn1c(-c2ccsc2)ncc(C(=O)C2=C(O)C3CCC(C3)C2=O)c1=O (stereo not shown) [Compound 228],"Plant response rating, Bluegrass",[1]; [10],0
same,"Plant response rating, Bluegrass",[1]; [12],5
same,"Plant response rating, Dayflower, VA",[2]; [12],85
same,"Plant response rating, Sandbur",[3]; [12],5
same,"Plant response rating, Quackgrass",[4]; [12],5
same,"Plant response rating, Field Bindweed",[5]; [12],70
same,"Plant response rating, Mallow",[6]; [12],65
same,"Plant response rating, Sowthistle",[7]; [12],98
same,"Plant response rating, Itchgrass",[8]; [12],65
same,"Plant response rating, Prickly Sida",[9]; [12],65
COCCn1c(-c2cccc(C)c2)ncc(C(=O)C2=C(O)C3CCC(C3)C2=O)c1=O (stereo not shown) [Compound 233],"Plant response rating, Bluegrass",[1]; [10],0
same,"Plant response rating, Bluegrass",[1]; [11],0
same,"Plant response rating, Bluegrass",[1]; [12],0
same,"Plant response rating, Bluegrass",[1]; [13],0
same,"Plant response rating, Bluegrass",[1]; [14],0
same,"Plant response rating, Bluegrass",[1]; [15],0
same,"Plant response rating, Bluegrass",[1]; [16],25
same,"Plant response rating, Bluegrass",[1]; [17],40
same,"Plant response rating, Dayflower, VA",[2]; [18],35
same,"Plant response rating, Dayflower, VA",[2]; [11],35
same,"Plant response rating, Dayflower, VA",[2]; [12],60
same,"Plant response rating, Dayflower, VA",[2]; [13],15
same,"Plant response rating, Dayflower, VA",[2]; [14],0
same,"Plant response rating, Dayflower, VA",[2]; [15],80
same,"Plant response rating, Dayflower, VA",[2]; [16],100
same,"Plant response rating, Dayflower, VA",[2]; [17],100
same,"Plant response rating, Sandbur",[3]; [18],65
same,"Plant response rating, Sandbur",[3]; [11],70
same,"Plant response rating, Sandbur",[3]; [12],75
same,"Plant response rating, Sandbur",[3]; [13],30
same,"Plant response rating, Sandbur",[3]; [14],0
same,"Plant response rating, Sandbur",[3]; [15],0
same,"Plant response rating, Sandbur",[3]; [17],85
same,"Plant response rating, Quackgrass",[4]; [18],0
same,"Plant response rating, Quackgrass",[4]; [11],10
same,"Plant response rating, Quackgrass",[4]; [12],25
same,"Plant response rating, Quackgrass",[4]; [13],0
same,"Plant response rating, Quackgrass",[4]; [14],0
same,"Plant response rating, Quackgrass",[4]; [15],0
same,"Plant response rating, Quackgrass",[4]; [17],0
same,"Plant response rating, Field Bindweed",[5]; [18],50
same,"Plant response rating, Field Bindweed",[5]; [11],50
same,"Plant response rating, Field Bindweed",[5]; [12],70
same,"Plant response rating, Field Bindweed",[5]; [13],10
same,"Plant response rating, Field Bindweed",[5]; [14],0
same,"Plant response rating, Field Bindweed",[5]; [15],0
same,"Plant response rating, Field Bindweed",[5]; [16],85
same,"Plant response rating, Field Bindweed",[5]; [17],85
same,"Plant response rating, Mallow",[6]; [18],0
same,"Plant response rating, Mallow",[6]; [11],0
same,"Plant response rating, Mallow",[6]; [12],0
same,"Plant response rating, Mallow",[6]; [13],0
same,"Plant response rating, Mallow",[6]; [14],0
same,"Plant response rating, Mallow",[6]; [15],0
same,"Plant response rating, Mallow",[6]; [16],0
same,"Plant response rating, Mallow",[6]; [17],60
same,"Plant response rating, Sowthistle",[7]; [18],100
same,"Plant response rating, Sowthistle",[7]; [12],100
same,"Plant response rating, Sowthistle",[7]; [13],90
same,"Plant response rating, Sowthistle",[7]; [14],0
same,"Plant response rating, Sowthistle",[7]; [15],50
same,"Plant response rating, Sowthistle",[7]; [17],100
same,"Plant response rating, Itchgrass",[8]; [18],65
same,"Plant response rating, Itchgrass",[8]; [11],70
same,"Plant response rating, Itchgrass",[8]; [12],80
same,"Plant response rating, Itchgrass",[8]; [13],50
same,"Plant response rating, Itchgrass",[8]; [14],0
same,"Plant response rating, Itchgrass",[8]; [15],0
same,"Plant response rating, Itchgrass",[8]; [16],0
same,"Plant response rating, Itchgrass",[8]; [17],20
same,"Plant response rating, Prickly Sida",[9]; [18],50
same,"Plant response rating, Prickly Sida",[9]; [11],50
same,"Plant response rating, Prickly Sida",[9]; [12],60
same,"Plant response rating, Prickly Sida",[9]; [13],30
same,"Plant response rating, Prickly Sida",[9]; [14],0
same,"Plant response rating, Prickly Sida",[9]; [15],0
same,"Plant response rating, Prickly Sida",[9]; [16],0
same,"Plant response rating, Prickly Sida",[9]; [17],70
COCCn1c(-c2cccc(F)c2)ncc(C(=O)C2=C(O)C3CCC(C3)C2=O)c1=O (stereo not shown) [Compound 235],"Plant response rating, Bluegrass",[1]; [10],5
same,"Plant response rating, Bluegrass",[1]; [11],20
same,"Plant response rating, Bluegrass",[1]; [12],35
same,"Plant response rating, Bluegrass",[1]; [19],50
same,"Plant response rating, Dayflower, VA",[2]; [18],60
same,"Plant response rating, Dayflower, VA",[2]; [11],70
same,"Plant response rating, Dayflower, VA",[2]; [12],75
same,"Plant response rating, Dayflower, VA",[2]; [19],75
same,"Plant response rating, Sandbur",[3]; [18],75
same,"Plant response rating, Sandbur",[3]; [11],75
same,"Plant response rating, Sandbur",[3]; [12],75
same,"Plant response rating, Sandbur",[3]; [19],75
same,"Plant response rating, Quackgrass",[4]; [18],5
same,"Plant response rating, Quackgrass",[4]; [11],30
same,"Plant response rating, Quackgrass",[4]; [12],40
same,"Plant response rating, Quackgrass",[4]; [19],70
same,"Plant response rating, Field Bindweed",[5]; [18],60
same,"Plant response rating, Field Bindweed",[5]; [11],65
same,"Plant response rating, Field Bindweed",[5]; [12],65
same,"Plant response rating, Field Bindweed",[5]; [19],70
same,"Plant response rating, Mallow",[6]; [18],10
same,"Plant response rating, Mallow",[6]; [11],50
same,"Plant response rating, Mallow",[6]; [12],70
same,"Plant response rating, Mallow",[6]; [19],70
same,"Plant response rating, Sowthistle",[7]; [18],98
same,"Plant response rating, Sowthistle",[7]; [11],98
same,"Plant response rating, Sowthistle",[7]; [12],98
same,"Plant response rating, Sowthistle",[7]; [19],98
same,"Plant response rating, Itchgrass",[8]; [18],70
same,"Plant response rating, Itchgrass",[8]; [11],75
same,"Plant response rating, Itchgrass",[8]; [12],80
same,"Plant response rating, Itchgrass",[8]; [19],90
same,"Plant response rating, Prickly Sida",[9]; [18],65
same,"Plant response rating, Prickly Sida",[9]; [11],65
same,"Plant response rating, Prickly Sida",[9]; [12],70
same,"Plant response rating, Prickly Sida",[9]; [19],75

# Reference: US8952024B2, “Herbicidal pyrimidone derivatives” (E I du Pont de Nemours and Company, priority 2009, dated 2015)
